By DC50 is commonly meant the midpoint of the concentration-degradation curve. What is called Dmax is the largest share of the target that was removed.

The target in experiment [1] is T1, BRD9 (Homo sapiens, UniProt Q9H8M2).
T1 sequence (Q9H8M2 1-597): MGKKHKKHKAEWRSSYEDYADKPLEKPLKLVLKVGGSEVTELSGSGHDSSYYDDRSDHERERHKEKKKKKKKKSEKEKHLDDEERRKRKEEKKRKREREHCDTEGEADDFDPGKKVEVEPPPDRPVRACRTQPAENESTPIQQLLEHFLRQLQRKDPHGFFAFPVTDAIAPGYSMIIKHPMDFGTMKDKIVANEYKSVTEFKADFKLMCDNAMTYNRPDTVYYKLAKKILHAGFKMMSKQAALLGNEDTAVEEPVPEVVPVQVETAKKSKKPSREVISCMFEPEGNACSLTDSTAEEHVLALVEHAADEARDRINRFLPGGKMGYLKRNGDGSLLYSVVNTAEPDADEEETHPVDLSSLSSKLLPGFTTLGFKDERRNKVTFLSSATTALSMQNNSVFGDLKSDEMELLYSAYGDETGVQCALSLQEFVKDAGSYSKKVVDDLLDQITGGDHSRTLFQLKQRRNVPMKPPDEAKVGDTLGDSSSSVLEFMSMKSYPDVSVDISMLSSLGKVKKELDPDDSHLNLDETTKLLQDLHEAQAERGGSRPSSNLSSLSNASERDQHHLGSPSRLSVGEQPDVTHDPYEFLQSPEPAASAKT
In words: Degradation of BRD9 (IF), immunofluorescence in MV4-11 cells, 24 hours (Assay Protocol 2). Details: A suspension of MV4-11 cells (ATCC CRL-9591) was prepared; host or cells: MV4-11. It is filed as cell-based. The following applies: BRD9 degradation; for DC50: Assay protocol 2, read-out: DC50; for Dmax: MV4-11, Assay protocol 2, read-out: Dmax. In outline:
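MV4-11 cells treated with compound 24 h at 37° C., then fixed, permeabilised and immunostained for BRD9 (anti-BRD9 E4Q3F, Alexa 647 secondary, Hoechst counterstain). High-content imaging quantified nuclear BRD9 signal; % BRD9 remaining normalised to DMSO and 100 nM CFT-8634 controls.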

Experiment [2] concerns the target T1, BRD9. In words: BRD9 degradation, HiBiT-BRD9 KI HEK293 (LgBiT) cells, NanoGlo Lytic Endpoint assay (Assay Protocol 1). It is filed as cell-based. The following applies: Assay protocol 1, BRD9 degradation; for DC50: read-out: DC50; for Dmax: HEK293, read-out: Dmax. Summed up: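 HiBiT-tagged BRD9 knock-in HEK293 (LgBiT) cells exposed to compounds for 6 h at 37 °C, 5% CO2. Residual BRD9 measured by HiBiT lytic luminescence. % BRD9 remaining normalised to DMSO-treated cells (high) and no-cell wells (low).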

Regarding `COc1cc(-c2cn(C)c(=O)c(C)c2C)cc(OC)c1CN1CCC(Oc2cccc(C3CCCN3C(=O)/C(C#N)=C/C(C)(C)C)c2)C1` (mixture of isomers) [Compound B54, (E/Z)-2-(2-(3-(((S)-1-(2,6-dimethoxy-4-(1,4,5-trimethyl-6-oxo-1,6-dihydropyridin-3-yl)benzyl)pyrrolidin-3-yl)oxy)phenyl)pyrrolidine-1-carbonyl)-4,4-dimethylpent-2-enenitrile], at BRD9 [1], the DC50 is under 1.25 nM and the Dmax lay within 70 to 75%. At BRD9 [2], the DC50 was under 1.25 nM and the Dmax is over 75%.
As to `COc1cc(-c2cn(C)c(=O)c(C)c2C)cc(OC)c1CN1CCN(C(=O)c2ccc(C3CCCN3C(=O)/C(C#N)=C/C(C)(C)C)cc2)CC1` (mixture of isomers) [Compound B55, (E/Z)-2-(2-(4-(4-(2,6-dimethoxy-4-(1,4,5-trimethyl-6-oxo-1,6-dihydropyridin-3-yl)benzyl)piperazine-1-carbonyl)phenyl)pyrrolidine-1-carbonyl)-4,4-dimethylpent-2-enenitrile], at BRD9 [1], the DC50 was in the range of 25 to 1000 nM and the Dmax is over 75%. Besides, on BRD9 [2], the 50% degradation concentration (DC50) was 10 to 25 nM and the Dmax was over 75%.
On to `COc1cc(-c2cn(C)c(=O)c(C)c2C)cc(OC)c1CN1CC(Oc2ccc3c(c2)CCN(C(=O)/C(C#N)=C/c2cccc(Br)n2)C3C)C1` (mixture of isomers) [Compound B57, (E/Z)-3-(6-bromopyridin-2-yl)-2-(6-((1-(2,6-dimethoxy-4-(1,4,5-trimethyl-6-oxo-1,6-dihydropyridin-3-yl)benzyl)azetidin-3-yl)oxy)-1-methyl-1,2,3,4-tetrahydroisoquinoline-2-carbonyl)acrylonitrile], for which, on BRD9 [1], the 50% degradation concentration (DC50) is under 1.25 nM and the Dmax fell in the range of 40 to 70%. For the same compound, at BRD9 [2], the DC50 is under 1.25 nM and the maximal degradation (Dmax) lay within 40 to 70%.
Turning to `COc1cc(-c2cn(C)c(=O)c(C)c2C)cc(OC)c1CN1CC2(C1)CN(c1cccc(C3CCCN3C(=O)/C(C#N)=C/C(C)(C)C)c1)C2` (mixture of isomers) [Compound B58, (E/Z)-2-(2-(3-(6-(2,6-dimethoxy-4-(1,4,5-trimethyl-6-oxo-1,6-dihydropyridin-3-yl)benzyl)-2,6-diazaspiro[3.3]heptan-2-yl)phenyl)pyrrolidine-1-carbonyl)-4,4-dimethylpent-2-enenitrile], at BRD9 [1], the half-maximal degradation concentration (DC50) was under 1.25 nM and the Dmax lay within 40 to 70%. At BRD9 [2], the half-maximal degradation concentration (DC50) was under 1.25 nM and the greatest degradation seen (Dmax) was 40 to 70%.
In the case of `COc1cc(-c2cn(C)c(=O)c3ccsc23)cc(OC)c1CN1CCN(Cc2cccc3c2CCN(C(=O)/C(C#N)=C/C(C)(C)C)C3C)CC1` (mixture of isomers) [Compound B59, (E/Z)-2-(5-((4-(2,6-dimethoxy-4-(5-methyl-4-oxo-4,5-dihydrothieno[3,2-c]pyridin-7-yl)benzyl)piperazin-1-yl)methyl)-1-methyl-1,2,3,4-tetrahydroisoquinoline-2-carbonyl)-4,4-dimethypent-2-enenitrile], the Dmax on BRD9 [1] and at BRD9 [2] was 40 to 70% throughout.
In the case of `COc1cc(-c2cn(C)c(=O)c(C)c2C)cc(OC)c1CN(C)Cc1cccc(C2CCCN2C(=O)/C(C#N)=C/C(C)(C)C)c1` (mixture of isomers) [Compound B78, (E/Z)-2-(2-(3-(((2,6-dimethoxy-4-(1,4,5-trimethyl-6-oxo-1,6-dihydropyridin-3-ylbenzyl)methyl)amino)methyl)phenyl)pyrrolidine-1-carbonyl)-4,4-dimethylpent-2-enenitrile], on BRD9 [1], the 50% degradation concentration (DC50) fell in the range of 10 to 25 nM and the Dmax was over 75%. At BRD9 [2], the 50% degradation concentration (DC50) fell in the range of 1.25 to 10 nM and the Dmax was over 75%.
As to `COc1cc(-c2cn(C)c(=O)c(C)c2C)cc(OC)c1CN1CCN(Cc2cccc3c2CCN(C(=O)/C(C#N)=C/C2CCOC2)C3C)CC1` (mixture of isomers) [Compound B94, (E/Z)-2-(5-((4-(2,6-dimethoxy-4-(1,4,5-trimethyl-6-oxo-1,6-dihydropyridin-3-yl)benzyl)piperazin-1-yl)methyl)-1-methyl-1,2,3,4-tetrahydroisoquinoline-2-carbonyl)-3-(tetrahydrofuran-3-yl)acrylonitrile], at BRD9 [1], the DC50 lay in the range of 1.25 to 10 nM and the greatest degradation seen (Dmax) lay within 40 to 70%. For the same compound, at BRD9 [2], the half-maximal degradation concentration (DC50) was 1.25 to 10 nM and the Dmax was over 75%.
In the case of `COc1cc(-c2cn(C)c(=O)c(C)c2C)cc(OC)c1CN1CCN(Cc2cccc3c2CCN(C(=O)/C(C#N)=C/C2CC(F)(F)C2)C3C)C2(CC2)C1` (mixture of isomers) [Compound B116], on BRD9 [1], the DC50 is under 1.25 nM and the Dmax is over 75%. Further, at BRD9 [2], the half-maximal degradation concentration (DC50) fell in the range of 1.25 to 10 nM and the greatest degradation seen (Dmax) is over 75%.
Turning to `COc1cc(-c2cn(C)c(=O)c(C)c2C)cc(OC)c1CN1C[C@H](C)N(Cc2cccc3c2CCN(C(=O)/C(C#N)=C/C(C)(C)C)C3C)C[C@H]1C` (mixture of isomers) [Compound B122, (E/Z)-2-(5-(((2S,5R)-4-(2,6-dimethoxy-4-(1,4,5-trimethyl-6-oxo-1,6-dihydropyridin-3-yl)benzyl)-2,5-dimethylpiperazin-1-yl)methyl)-1-methyl-1,2,3,4-tetrahydroisoquinoline-2-carbonyl)-4,4-dimethylpent-2-enenitrile], on BRD9 [1], the half-maximal degradation concentration (DC50) fell in the range of 10 to 25 nM and the Dmax was over 75%. Moreover, on BRD9 [2], the 50% degradation concentration (DC50) lay in the range of 1.25 to 10 nM and the Dmax is over 75%.
`COc1cc(-c2cn(C)c(=O)c(C)c2C)cc(OC)c1CN1CCN(Cc2cccc3c2CCN(C(=O)/C(C#N)=C/C2(C)CCOCC2)C3C)C2(CC2)C1` (mixture of isomers) [Compound B123, (E/Z)-2-(5-((7-(2,6-dimethoxy-4-(1,4,5-trimethyl-6-oxo-1,6-dihydropyridin-3-yl)benzyl)-4,7-diazaspiro[2.5]octan-4-yl)methyl)-1-methyl-1,2,3,4-tetrahydroisoquinoline-2-carbonyl)-3-(4-methyltetrahydro-2H-pyran-4-yl)acrylonitrile]: at BRD9 [1], the DC50 was under 1.25 nM and the maximal degradation (Dmax) is over 75%. Besides, on BRD9 [2], the 50% degradation concentration (DC50) is 1.25 to 10 nM and the maximal degradation (Dmax) is over 75%.
In the case of `COCC1(/C=C(\C#N)C(=O)N2CCc3c(CN4CCN(Cc5c(OC)cc(-c6cn(C)c(=O)c(C)c6C)cc5OC)CC45CC5)cccc3C2C)CC1` (mixture of isomers) [Compound B124, (E/Z)-2-(5-((7-(2,6-dimethoxy-4-(1,4,5-trimethyl-6-oxo-1,6-dihydropyridin-3-yl)benzyl)-4,7-diazaspiro[2.5]octan-4-yl)methyl)-1-methyl-1,2,3,4-tetrahydroisoquinoline-2-carbonyl)-3-(1-(methoxymethyl)cyclopropyl)acrylonitrile], on BRD9 [1], the DC50 was under 1.25 nM and the greatest degradation seen (Dmax) is over 75%. Also, on BRD9 [2], the DC50 was under 1.25 nM and the Dmax is over 75%.
`COc1cc(-c2cn(C)c(=O)c(C)c2C)cc(OC)c1CN1CCN(Cc2cccc3c2CCN(C(=O)/C(C#N)=C\C(C)(C)CF)C3C)C2(CC2)C1` (mixture of isomers) [Compound B125, (E/Z)-2-(5-((7-(2,6-dimethoxy-4-(1,4,5-trimethyl-6-oxo-1,6-dihydropyridin-3-yl)benzyl)-4,7-diazaspiro[2.5]octan-4-yl)methyl)-1-methyl-1,2,3,4-tetrahydroisoquinoline-2-carbonyl)-5-fluoro-4,4-dimethylpent-2-enenitrile]: on BRD9 [1], the 50% degradation concentration (DC50) was under 1.25 nM and the Dmax was over 75%. In addition, at BRD9 [2], the 50% degradation concentration (DC50) was under 1.25 nM and the greatest degradation seen (Dmax) is over 75%.
Regarding `COc1cc(-c2cn(C)c(=O)c(C)c2C)cc(OC)c1CN1CCN(Cc2cccc3c2CCN(C(=O)/C(C#N)=C/C(C)(C)N2CCN(C4COC4)CC2)C3C)C2(CC2)C1` (mixture of isomers) [Compound B126, (E/Z)-2-(5-((7-(2,6-dimethoxy-4-(1,4,5-trimethyl-6-oxo-1,6-dihydropyridin-3-yl)benzyl)-4,7-diazaspiro[2.5]octan-4-yl)methyl)-1-methyl-1,2,3,4-tetrahydroisoquinoline-2-carbonyl)-4-methyl-4-(4-(oxetan-3-yl)piperazin-1-yl)pent-2-enenitrile], at BRD9 [1], the DC50 was 1.25 to 10 nM and the greatest degradation seen (Dmax) fell in the range of 70 to 75%. Besides, on BRD9 [2], the half-maximal degradation concentration (DC50) lay within 1.25 to 10 nM and the Dmax was over 75%.
